Our source for the IC50 values is BindingDB's records for doi:10.1016/S0960-894X(00)80281-4 (1993).

The experiment can be described thus: Tested for inhibition against purified catalytic subunit of protein phosphatase-1 from rabbit skeletal muscle.

The compound `C/C=C1/C(=O)N[C@@H](C(=O)O)[C@H](C)C(=O)N[C@@H](C(C)C)C(=O)N[C@@H](/C=C/C(C)=C/[C@H](C)[C@H](Cc2ccccc2)OC)[C@H](C)C(=O)N[C@@H](C(=O)O)CCC(=O)N1C` [Motuporin] displayed an IC50 of less than 1 nM.
